pKi: −log10 of the molar value. Blank lines part the entries; values can stand above or below the molecule they belong to. Activity calls are given as the source filed them. The calls are words filed in the database; no cut-off is given here.
Columns and labels:
Carbonic anhydrase 9 = Carbonic anhydrase 9 (Homo sapiens, UniProt Q16790)
Description: Inhibition of human recombinant carbonic anhydrase 9 preincubated for 15 mins prior to testing by stopped-flow CO2 hydration assay

HT-29 [1] = assay: Cytotoxicity against human HT-29 spheroids expressing carbonic anhydrase 9/12 assessed as cell viability at 1 mM after 24 hrs by WST8 assay; type: functional
SK-OV-3 [2] = assay: (§1) Cytotoxicity against human SKOV3 spheroids expressing carbonic anhydrase 9/12 assessed as cell viability at 1 mM after 24 hrs by WST8 assay; type: functional
HT-29 [3] = assay: Cytotoxicity against human HT-29 spheroids expressing carbonic anhydrase 9/12 assessed as cell viability at 100 uM after 24 hrs by WST8 assay; type: functional
SK-OV-3 [4] = assay: (§2) Cytotoxicity against human SKOV3 spheroids expressing carbonic anhydrase 9/12 assessed as cell viability at 100 uM after 24 hrs by WST8 assay; type: functional
MDA-MB-231 [5] = assay: Cytotoxicity against human MDA-MB-231 spheroids expressing carbonic anhydrase 9/12 assessed as cell viability at 100 uM after 24 hrs by WST8 assay; type: functional
MDA-MB-231 [6] = assay: Cytotoxicity against human MDA-MB-231 spheroids expressing carbonic anhydrase 9/12 assessed as cell viability at 1 mM after 24 hrs by WST8 assay; type: functional
[7] = as §1; type: functional; conditions: SK-OV-3, 24 h, read-out: Activity
HT-29 [8] = assay: Cytotoxicity against human HT-29 cells expressing carbonic anhydrase 9/12 assessed as cell viability at 100 uM after 24 hrs under hypoxic conditions by MTT assay; type: functional; conditions: HT-29, 24 h, read-out: Activity
[9] = Cytotoxicity against human SKOV3 cells expressing carbonic anhydrase 9/12 assessed as cell viability at 100 uM after 24 hrs under hypoxic conditions by MTT assay; type: functional; conditions: SK-OV-3, 24 h, read-out: Activity
MDA-MB-231 [10] = assay: Cytotoxicity against human MDA-MB-231 cells expressing carbonic anhydrase 9/12 assessed as cell viability at 100 uM after 24 hrs under hypoxic conditions by MTT assay; type: functional; conditions: MDA-MB-231, 24 h, read-out: Activity
[11] = Cytotoxicity against human SKOV3 cells expressing carbonic anhydrase 9/12 assessed as cell viability at 100 uM after 24 hrs under normoxic conditions by MTT assay; type: functional; conditions: SK-OV-3, 24 h, read-out: Activity
HT-29 [12] = assay: Cytotoxicity against human HT-29 cells expressing carbonic anhydrase 9/12 assessed as cell viability at 1 mM after 24 hrs under hypoxic conditions by MTT assay; type: functional; conditions: HT-29, 24 h, read-out: Activity
MDA-MB-231 [13] = assay: Cytotoxicity against human MDA-MB-231 cells expressing carbonic anhydrase 9/12 assessed as cell viability at 10 uM after 24 hrs under hypoxic conditions by MTT assay; type: functional; conditions: MDA-MB-231, 24 h, read-out: Activity
MDA-MB-231 [14] = assay: Cytotoxicity against human MDA-MB-231 cells expressing carbonic anhydrase 9/12 assessed as cell viability at 1 mM after 24 hrs under normoxic conditions by MTT assay; type: functional; conditions: MDA-MB-231, 24 h, read-out: Activity
[15] = Cytotoxicity against human SKOV3 cells expressing carbonic anhydrase 9/12 assessed as cell viability at 10 uM after 24 hrs under hypoxic conditions by MTT assay; type: functional; conditions: SK-OV-3, 24 h, read-out: Activity
[16] = as §2; type: functional; conditions: SK-OV-3, 24 h, read-out: Activity
MDA-MB-231 [17] = assay: Cytotoxicity against human MDA-MB-231 cells expressing carbonic anhydrase 9/12 assessed as cell viability at 100 uM after 24 hrs under normoxic conditions by MTT assay; type: functional; conditions: MDA-MB-231, 24 h, read-out: Activity
[18] = Cytotoxicity against human SKOV3 cells expressing carbonic anhydrase 9/12 assessed as cell viability at 10 uM after 24 hrs under normoxic conditions by MTT assay; type: functional; conditions: SK-OV-3, 24 h, read-out: Activity
MDA-MB-231 [19] = assay: Cytotoxicity against human MDA-MB-231 cells expressing carbonic anhydrase 9/12 assessed as cell viability at 10 uM after 24 hrs under normoxic conditions by MTT assay; type: functional; conditions: MDA-MB-231, 24 h, read-out: Activity
MDA-MB-231 [20] = assay: Cytotoxicity against human MDA-MB-231 cells expressing carbonic anhydrase 9/12 assessed as cell viability at 1 mM after 24 hrs under hypoxic conditions by MTT assay; type: functional; conditions: MDA-MB-231, 24 h, read-out: Activity
[21] = Cytotoxicity against human SKOV3 cells expressing carbonic anhydrase 9/12 assessed as cell viability at 1 mM after 24 hrs under normoxic conditions by MTT assay; type: functional; conditions: SK-OV-3, 24 h, read-out: Activity
HT-29 [22] = assay: Cytotoxicity against human HT-29 cells expressing carbonic anhydrase 9/12 assessed as cell viability at 100 uM after 24 hrs under normoxic conditions by MTT assay; type: functional; conditions: HT-29, 24 h, read-out: Activity
[23] = Cytotoxicity against human SKOV3 cells expressing carbonic anhydrase 9/12 assessed as cell viability at 1 mM after 24 hrs under hypoxic conditions by MTT assay; type: functional; conditions: SK-OV-3, 24 h, read-out: Activity
HT-29 [24] = assay: Cytotoxicity against human HT-29 cells expressing carbonic anhydrase 9/12 assessed as cell viability at 10 uM after 24 hrs under hypoxic conditions by MTT assay; type: functional; conditions: HT-29, 24 h, read-out: Activity
HT-29 [25] = assay: Cytotoxicity against human HT-29 cells expressing carbonic anhydrase 9/12 assessed as cell viability at 10 uM after 24 hrs under normoxic conditions by MTT assay; type: functional; conditions: HT-29, 24 h, read-out: Activity
HT-29 [26] = assay: Cytotoxicity against human HT-29 cells expressing carbonic anhydrase 9/12 assessed as cell viability at 1 mM after 24 hrs under normoxic conditions by MTT assay; type: functional; conditions: HT-29, 24 h, read-out: Activity
[27] = HT-29, 24 h, read-out: Activity
[28] = MDA-MB-231, 24 h, read-out: Activity

SMILES: NS(=O)(=O)c1nnc(NS(=O)(=O)c2ccc(NC(=O)CCC(=O)NCCOCCOCCOCCOCCOCCOCCOCCOCCOCCOCCOCCOCCOCCOCCOCCOCCOCCOCCOCCOCCOCCOCCOCCOCCOCCOCCOCCOCCOCCOCCOCCOCCOCCOCCOCCOCCOCCOCCOCCOCCOCCOCCOCCOCCOCCNC(=O)CCC(=O)Nc3ccc(S(=O)(=O)Nc4nnc(S(N)(=O)=O)s4)cc3)cc2)s1
- pKi (Carbonic anhydrase 9): 8.77

SMILES: NS(=O)(=O)c1ccc(NC(=O)CCC(=O)NCCOCCOCCOCCOCCOCCOCCOCCOCCOCCOCCOCCOCCOCCOCCOCCOCCOCCOCCOCCOCCOCCOCCOCCOCCOCCOCCOCCOCCOCCOCCOCCOCCOCCOCCOCCOCCOCCOCCOCCOCCOCCOCCOCCOCCOCCNC(=O)CCC(=O)Nc2ccc(S(N)(=O)=O)cc2)cc1
- pKi (Carbonic anhydrase 9): 8.32

SMILES: NS(=O)(=O)c1nnc(NS(=O)(=O)c2ccc(NC(=O)CCC(=O)O)cc2)s1
- Activity (HT-29 [1]): Active
- Activity (SK-OV-3 [2]): Active
- Activity (HT-29 [3]): Active
- Activity (SK-OV-3 [4]): Active
- Activity (MDA-MB-231 [5]): inactive
- Activity (MDA-MB-231 [6]): inactive

SMILES: NS(=O)(=O)c1nnc(NC(=O)CCC(=O)O)s1
- Activity (HT-29 [1]): Active
- Activity (SK-OV-3 [2]): Active
- Activity (HT-29 [3]): Active
- Activity (SK-OV-3 [4]): Active
- Activity (MDA-MB-231 [5]): inactive
- Activity (MDA-MB-231 [6]): inactive

Now from value to molecule, other results behind:

- pKi (Carbonic anhydrase 9): 8.54
SMILES: NS(=O)(=O)c1ccc(NC(=O)CCC(=O)NCCOCCOCCNC(=O)CCC(=O)Nc2ccc(S(N)(=O)=O)cc2)cc1
- Activity (HT-29 [1]): Active
- Activity (SK-OV-3 [2]): Active
- Activity (HT-29 [3]): Active
- Activity (SK-OV-3 [4]): Active
- Activity (MDA-MB-231 [5]): inactive
- Activity (MDA-MB-231 [6]): inactive

- pKi (Carbonic anhydrase 9): 8.60
SMILES: NS(=O)(=O)c1nnc(NC(=O)CCC(=O)NCCOCCOCCOCCOCCOCCOCCOCCOCCOCCOCCOCCOCCOCCOCCOCCOCCOCCOCCOCCOCCOCCOCCOCCOCCOCCOCCOCCOCCOCCOCCOCCOCCOCCOCCOCCOCCOCCOCCOCCOCCOCCOCCOCCOCCOCCNC(=O)CCC(=O)Nc2nnc(S(N)(=O)=O)s2)s1
- viability at 1000 µM (HT-29 [1]; [27]): 60%
- viability at 1000 µM [7]: 50%
- viability at 100 µM (HT-29 [8]): 50%
- viability at 100 µM [9]: 50%
- viability at 100 µM (HT-29 [3]; [27]): 70%
- viability at 100 µM (MDA-MB-231 [10]): 50%
- viability at 100 µM [11]: 50%
- viability at 1000 µM (HT-29 [12]): 30%
- viability at 10 µM (MDA-MB-231 [13]): 60%
- viability at 1000 µM (MDA-MB-231 [14]): 30%
- viability at 10 µM [15]: 60%
- viability at 100 µM [16]: 80%
- viability at 100 µM (MDA-MB-231 [17]): 50%
- viability at 10 µM [18]: 60%
- viability at 10 µM (MDA-MB-231 [19]): 60%
- viability at 1000 µM (MDA-MB-231 [20]): 30%
- viability at 1000 µM [21]: 30%
- viability at 100 µM (HT-29 [22]): 50%
- viability at 1000 µM [23]: 30%
- viability at 100 µM (MDA-MB-231 [5]; [28]): 90%
- viability at 10 µM (HT-29 [24]): 60%
- viability at 1000 µM (MDA-MB-231 [6]; [28]): 80%
- viability at 10 µM (HT-29 [25]): 60%
- viability at 1000 µM (HT-29 [26]): 30%

- pKi (Carbonic anhydrase 9): 8.02
SMILES: NS(=O)(=O)c1nnc(NC(=O)CCC(=O)NCCOCCOCCNC(=O)CCC(=O)Nc2nnc(S(N)(=O)=O)s2)s1

- pKi (Carbonic anhydrase 9): 7.62
SMILES: NS(=O)(=O)c1nnc(NS(=O)(=O)c2ccc(NC(=O)CCC(=O)NCCOCCOCCNC(=O)CCC(=O)Nc3ccc(S(=O)(=O)Nc4nnc(S(N)(=O)=O)s4)cc3)cc2)s1
- Activity (HT-29 [1]): Active
- Activity (SK-OV-3 [2]): Active
- Activity (HT-29 [3]): Active
- Activity (SK-OV-3 [4]): Active
- Activity (MDA-MB-231 [5]): inactive
- Activity (MDA-MB-231 [6]): inactive

Source: ChEMBL document CHEMBL3822401, “PEGylated Bis-Sulfonamide Carbonic Anhydrase Inhibitors Can Efficiently Control the Growth of Several Carbonic Anhydrase IX-Expressing Carcinomas” (J Med Chem, 2016)
